# Values of other authors in patent publication US20230355898A1, “NEBULIZER AND NEBULIZED ANTI-VIRALS” (priority 2020, published 2023).
# Counter-ions that a name gives are not always drawn. Like-named read-outs stand apart in the source and are kept apart here.
# Key:
# SARS-CoV-2 [1] = conditions: for SARS-CoV-2 viral load measured by RT-qPCR of the viral N transcript: COVID-19 hamster model, Intraperitoneal (IP) administration; for prophylactic efficacy in reducing SARS-CoV-2 infection: hamsters, 50 mg/kg SC QD, virus intranasal or by association with nasally infected animals; for reduction in viral load or change in disease progression: Rosenke
# [2] = tested on: SARS-CoV-2 pseudoparticulates; conditions: drug at human blood maximum concentrations in fluid and airway channels; Si, 2020
# [3] = tested on: SARS-CoV-2 pseudoparticulates (pp); conditions: Huh-7, SARS-CoV-2pp, concurrent treatment, Si, 2020
# SARS-CoV-2 [4] = conditions: Vero 6, SARS-Cov-2, pretreatment; Si, 2020; read-out: Inhibition of infection IC50
# SARS-CoV-2 [5] = conditions: read-out: Viral Replication EC50 @ 48 hr, Vero 6, Concurrent, Wang, 2020
# [6] = free base; PubChem
# [7] = rat, in vivo
# SARS-CoV-2 [8] = conditions: Rhesus Macaque, Rosenke, 2020
# [9] = not given; remark: listed apart in the source
# [10] = four-route infection on day 0, 6 mg/kg PO 12 18, 36, 60, 84 and 108 hours post-infection (therapeutic)
# [11] = four-route infection on day 0, 6 mg/kg PO on days −9, −2, and 5 (prophylactic)
compound,measurement,setting,value
CCN(CC)Cc1cc(Nc2ccnc3cc(Cl)ccc23)ccc1O.Cl.Cl [ADQ hydrochloride],SARS-CoV-2 viral load measured by RT-qPCR of the viral N transcript,"SARS-CoV-2 [1]; Si, 2020",able to reduce
same,prophylactic efficacy in reducing SARS-CoV-2 infection,SARS-CoV-2 [1],effective
same,Inhibition of SARS-CoV-2pp entry into LAC epithelial cells (qPCR of viral mRNA),[2],inhibited
"CCN(CC)Cc1cc(Nc2ccnc3cc(Cl)ccc23)ccc1O [ADQ, amodiaquine]",Inhibition of viral entry: % entry @ 1 μM,[3],10% entry @1 μM
same,Inhibition of viral entry: % entry @ 5 μM,[3],30% entry @ 5 μM;
same,reduction in viral load on day 4,"SARS-CoV-2 [1]; Hamster, exposure of healthy animals to nasally infected animals on day 2, 50 mg/kg SC day 1 and days 2, 3, 4, Si, 2020",90% reduction in
same,reduction in viral load on day 4,"SARS-CoV-2 [1]; Hamster, nasal infection on day 2, 50 mg/kg SC 1 day before infection and days 2, 3, 4, Si, 2020",70% reduction in
same,prophylactic efficacy in reducing SARS-CoV-2 infection,SARS-CoV-2 [1],exhibit prophylactic efficacy
same,T1/2,"human, in vivo, iv",0.083 days
same,V2,"in vivo, iv",39 L
same,IC50,SARS-CoV-2 [4],10.3 µM
CCN(CC)CCCC(C)Nc1ccnc2cc(Cl)ccc12.O=P(O)(O)O.O=P(O)(O)O (stereo not drawn) [CQ phosphate],Inhibition of SARS-CoV-2pp entry into LAC epithelial cells (qPCR of viral mRNA),[2],lack of efficacy
"CCN(CC)CCCC(C)Nc1ccnc2cc(Cl)ccc12 (stereo not drawn) [CQ, chloroquine]",Inhibition of viral entry: % entry @ 1 μM,[3],10% entry @ 1 μM
same,Inhibition of viral entry: % entry @ 5 μM,[3],50% entry @ 5 μM;
same,Inhibition of SARS-CoV-2pp entry into LAC epithelial cells (qPCR of viral mRNA),[2],lack of efficacy
same,T1/2,IV in humans,23.7 days
same,V2,IV in humans,"7,973 L"
same,EC50,SARS-CoV-2 [5],1.13 µM
"CCNCc1cc(Nc2ccnc3cc(Cl)ccc23)ccc1O [DEAQ, desethylamodiaquine]",Log P,[6],2.3
same,IC50,SARS-CoV-2 [4],8.5 µM
"CCN(CCO)CCCC(C)Nc1ccnc2cc(Cl)ccc12 (stereo not drawn) [HCQ sulfate, hydroxychloroquine sulfate]","lung drug concentrations, IT versus IV solution",[7],higher lung drug concentrations
same,SARS-CoV-2 viral load measured by RT-qPCR of the viral N transcript,"SARS-CoV-2 [1]; Si, 2020",ineffective
same,reduction in viral load on day 5,"SARS-CoV-2 [1]; Hamster, exposure to nasally infected animals on day 2, 600 mg/kg IP day 1 and 50 mg/kg IP days 2, 3, 4, 5, Kapstein, 2020",ineffective
same,reduction in viral load or change in disease progression,"SARS-CoV-2 [1]; Hamster, nasal infection on day 1, 50 mg/kg IP 1 hr after infection and days 2, 3 (therapeutic), 2020, 50 mg/kg",ineffective
same,reduction in viral load or change in disease progression,"SARS-CoV-2 [1]; Hamster, nasal infection on day 2, 50 mg/kg IP 1 day before infection and days 2, 3, 4 (prophylactic), 2020, 50 mg/kg",ineffective
same,reduction in viral load on day 4,"SARS-CoV-2 [1]; Hamster, nasal infection on day 2, 50 mg/kg IP 1 day before infection and days 2, 3, 4, Kapstein, 2020, 50 mg/kg",ineffective
same,"effect upon viral loads at days 3, 5, or 7, or disease pathology through post-mortem on day 7",SARS-CoV-2 [8]; [10],ineffective
same,"effect upon viral loads at days 3, 5, or 7, or disease pathology through post-mortem on day 7",SARS-CoV-2 [8]; [11],ineffective
same,Inhibition of SARS-CoV-2pp entry into LAC epithelial cells (qPCR of viral mRNA),[2],lack of efficacy
same,clinical endpoints for asthma (Phase II),[9]; nebulized,did not meet its clinical endpoints
same,tolerability of pulmonary doses,"[9]; nebulized hypertonic 100 mg/mL, up to 20 mg QD",well tolerated with minimal side effects
"CCN(CCO)CCCC(C)Nc1ccnc2cc(Cl)ccc12 (stereo not drawn) [HCQ, hydroxychloroquine]",Log P,[6],3.9
same,Inhibition of viral entry: % entry @ 1 μM,[3],30% entry @ 1 μM
same,Inhibition of viral entry: % entry @ 5 μM,[3],50% entry @ 5 μM;
same,"effect upon viral loads at days 3, 5, or 7, or disease pathology through post-mortem on day 7",SARS-CoV-2 [8]; [10],No effect upon viral
same,"effect upon viral loads at days 3, 5, or 7, or disease pathology through post-mortem on day 7",SARS-CoV-2 [8]; [11],No effect upon viral
same,Inhibition of SARS-CoV-2pp entry into LAC epithelial cells (qPCR of viral mRNA),[2],repeatedly failed
same,T1/2,"human, in vivo, iv",26.2 days
same,V2,"in vivo, iv","26,711 L"
